Reference: patent US10800791B2, “Triazole ACC inhibitors and uses thereof” (Gilead Apollo, LLC, priority 2015, dated 2020)
≈ marks a conversion by molar mass, not a printed value. Like-named read-outs stand apart in the source and are kept apart here.

Columns and labels:
[1] = tested on: Fusarium virguliforme (Fv); assay: Growth inhibition assay of fungal pathogens, Fv; assay type: cell-based; details: 48 h, read-out: Concentration at 90% Inhibition Fv
Procedure, shortened: (§1)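 Inhibition percentages reflect 48 h OD600 and visual scores relative to a 2% DMSO control. Test concentrations were 50, 10, 2 ppm or 2, 0.4, 0.08 ppm final, applied to spores in 17% V8 medium.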

[2] = tested on: Fusarium moniliforme (Fm); assay: Growth inhibition assay of fungal pathogens, Fm; assay type: cell-based; details: Fusarium verticillioides, 48 h, Fusarium moniliforme, read-out: Concentration at 90% Inhibition Fm
Procedure, shortened: as §1

C. albicans = assay: Antifungal Activity Assay (broth microtiter MIC), C. albicans; assay type: cell-based, Candida albicans; details: Candida albicans, ATCC90028, 48 h, ATCC 90028, 3 replicates, MIC recorded at 48 h, read-out: MIC, C. albicans ATCC 90028
Procedure, shortened: (§2)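 Endpoint: lowest concentration visibly inhibiting growth relative to control after 48 h. Inoculum of 2.5×10^3 CFU/mL final in RPMI 1640+MOPS, prepared from overnight 35° C agar cultures; test compounds diluted in water to 128 μg/mL before plating.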

[3] = tested on: Phytophthora capsici (Pc); assay: Growth inhibition assay of fungal pathogens, Pc; assay type: cell-based; details: 48 h, read-out: Concentration at 90% Inhibition Pc
Procedure, shortened: as §1

Botrtyis cinerea (Bc) = assay: Growth inhibition assay of fungal pathogens, Bc; assay type: cell-based; details: 48 h, Botrtyis cinerea, read-out: Concentration at 90% Inhibition Bc
Procedure, shortened: as §1

Diplodia maydis (Dm) = assay: Growth inhibition assay of fungal pathogens, Dm; assay type: cell-based; details: Stenocarpella maydis, 48 h, Diplodia maydis, read-out: Concentration at 90% Inhibition Dm
Procedure, shortened: as §1

C. parapsilosis = assay: Antifungal Activity Assay (broth microtiter MIC), C. parapsilosis; assay type: cell-based, Candida parapsilosis; details: Lodderomyces parapsilosis, ATCC22019, 48 h, ATCC 22019, 3 replicates, MIC recorded at 48 h, read-out: MIC, C. parapsilosis ATCC 22019
Procedure, shortened: as §2

[4] = tested on: Collectotrichum graminicola (Cg); assay: Growth inhibition assay of fungal pathogens, Cg; assay type: cell-based; details: 48 h, Collectotrichum graminicola, read-out: Concentration at 90% Inhibition Cg
Procedure, shortened: as §1

C. krusei = assay: Antifungal Activity Assay (broth microtiter MIC), C. krusei; assay type: cell-based, Candida krusei; details: Pichia kudriavzevii, ATCC6258, 48 h, ATCC 6258, 3 replicates, MIC recorded at 48 h, read-out: MIC, C. krusei ATCC 6258
Procedure, shortened: as §2

Septoria tritici (St) = assay: Growth inhibition assay of fungal pathogens, St; assay type: cell-based; details: Zymoseptoria tritici, 48 h, Septoria tritici, read-out: Concentration at 90% Inhibition St
Procedure, shortened: as §1

[5] = growth inhibition at 48 hours vs 2% DMSO control
[6] = growth inhibition vs 2% DMSO control at 48 hours

Structure (SMILES): COc1ccc(F)cc1[C@H](Cn1c(=O)n(C(C)(C)C(=O)N2CCCC2)c(=O)c2c(C)c(-n3nccn3)sc21)OCC(C)C [Compound I-12, (R)-1-(2-(5-fluoro-2-methoxyphenyl)-2-isobutoxyethyl)-5-methyl-3-(2-methyl-1-oxo-1-(pyrrolidin-1-yl)propan-2-yl)-6-(2H-1,2,3-triazol-2-yl)thieno[2,3-d]pyrimidine-2,4(1H,3H)-dione]
- IC90 [1, 5]: 0.4 µg/mL (≈ 0.653 µM)
- IC90 [1, 6]: 0.4 µg/mL (≈ 0.653 µM)
- IC90 [2, 5]: 0.08 µg/mL (≈ 0.131 µM)
- IC90 [2, 6]: 0.08 µg/mL (≈ 0.131 µM)
- MIC (C. albicans; Table 3a): 1.1 to 2 µg/mL (≈ 1.8 to 3.26 µM)
- MIC (C. albicans; Table 3b (additional results)): 0.25 to 1 µg/mL (≈ 0.408 to 1.63 µM)
- IC90 [3, 5]: > 50 µg/mL
- IC90 [3, 6]: > 50 µg/mL
- IC90 (Botrtyis cinerea (Bc); [5]): 0.4 µg/mL (≈ 0.653 µM)
- IC90 (Botrtyis cinerea (Bc); [6]): 0.4 µg/mL (≈ 0.653 µM)
- IC90 (Diplodia maydis (Dm); [5]): 0.08 µg/mL (≈ 0.131 µM)
- IC90 (Diplodia maydis (Dm); [6]): 0.08 µg/mL (≈ 0.131 µM)
- MIC (C. parapsilosis; Table 3a): 2.1 to 4 µg/mL (≈ 3.43 to 6.53 µM)
- MIC (C. parapsilosis; Table 3b (additional results)): 1.01 to 2 µg/mL (≈ 1.65 to 3.26 µM)
- IC90 [4, 5]: 0.08 µg/mL (≈ 0.131 µM)
- IC90 [4, 6]: 0.08 µg/mL (≈ 0.131 µM)
- MIC (C. krusei; Table 3a): 0.25 to 1 µg/mL (≈ 0.408 to 1.63 µM)
- MIC (C. krusei; Table 3b (additional results)): 0.25 to 1 µg/mL (≈ 0.408 to 1.63 µM)
- IC90 (Septoria tritici (St); [5]): 2 µg/mL (≈ 3.26 µM)
- IC90 (Septoria tritici (St); [6]): 10 µg/mL (≈ 16.3 µM)

Structure (SMILES): COc1ccccc1[C@H](Cn1c(=O)n(C(C)(C)C(N)=O)c(=O)c2c(C)c(-n3nccn3)sc21)OC1CCOCC1 [Compound I-14, (R)-2-(1-(2-(2-methoxyphenyl)-2-((tetrahydro-2H-pyran-4-yl)oxy)ethyl)-5-methyl-2,4-dioxo-6-(2H-1,2,3-triazol-2-yl)-1,4-dihydrothieno[2,3-d]pyrimidin-3(2H)-yl)-2-methylpropanamide]
- IC90 [1, 5]: 10 µg/mL (≈ 17.6 µM)
- IC90 [1, 6]: > 50 µg/mL
- IC90 [2, 5]: 0.08 µg/mL (≈ 0.141 µM)
- IC90 [2, 6]: 0.08 µg/mL (≈ 0.141 µM)
- MIC (C. albicans; Table 3a): 0.25 to 1 µg/mL (≈ 0.44 to 1.76 µM)
- MIC (C. albicans; Table 3b (additional results)): 0.25 to 1 µg/mL (≈ 0.44 to 1.76 µM)
- IC90 [3, 5]: > 50 µg/mL
- IC90 [3, 6]: > 50 µg/mL
- IC90 (Botrtyis cinerea (Bc); [5]): 2 µg/mL (≈ 3.52 µM)
- IC90 (Botrtyis cinerea (Bc); [6]): 2 µg/mL (≈ 3.52 µM)
- IC90 (Diplodia maydis (Dm); [5]): 10 µg/mL (≈ 17.6 µM)
- IC90 (Diplodia maydis (Dm); [6]): > 50 µg/mL
- MIC (C. parapsilosis; Table 3a): 1.1 to 2 µg/mL (≈ 1.93 to 3.52 µM)
- MIC (C. parapsilosis; Table 3b (additional results)): 2.01 to 4 µg/mL (≈ 3.53 to 7.03 µM)
- IC90 [4, 5]: 10 µg/mL (≈ 17.6 µM)
- IC90 [4, 6]: > 50 µg/mL
- MIC (C. krusei; Table 3a): 0.25 to 1 µg/mL (≈ 0.44 to 1.76 µM)
- MIC (C. krusei; Table 3b (additional results)): 1.01 to 2 µg/mL (≈ 1.78 to 3.52 µM)
- IC90 (Septoria tritici (St); [5]): > 50 µg/mL
- IC90 (Septoria tritici (St); [6]): > 50 µg/mL
